Read-outs that look alike come from different tables or passages of the source.
Tests used:
Assay in all cases: Further analysis of a plurality of inhibitors and a plurality of kinases (Table 5 inhibition results)
Format in all cases: biochemical
Design in all cases: scale not given here
kinases of Table 5 [1] = biological target: kinases of Table 5 (Homo sapiens, UniProt P00519); conditions: for Inhibition level: kinase ABL1; for Inhibition Results (Level): kinase ABL1 (Part II, plate B6, Domain 1)
Chain of kinases of Table 5 (Homo sapiens, UniProt P00519) (P00519 whole entry): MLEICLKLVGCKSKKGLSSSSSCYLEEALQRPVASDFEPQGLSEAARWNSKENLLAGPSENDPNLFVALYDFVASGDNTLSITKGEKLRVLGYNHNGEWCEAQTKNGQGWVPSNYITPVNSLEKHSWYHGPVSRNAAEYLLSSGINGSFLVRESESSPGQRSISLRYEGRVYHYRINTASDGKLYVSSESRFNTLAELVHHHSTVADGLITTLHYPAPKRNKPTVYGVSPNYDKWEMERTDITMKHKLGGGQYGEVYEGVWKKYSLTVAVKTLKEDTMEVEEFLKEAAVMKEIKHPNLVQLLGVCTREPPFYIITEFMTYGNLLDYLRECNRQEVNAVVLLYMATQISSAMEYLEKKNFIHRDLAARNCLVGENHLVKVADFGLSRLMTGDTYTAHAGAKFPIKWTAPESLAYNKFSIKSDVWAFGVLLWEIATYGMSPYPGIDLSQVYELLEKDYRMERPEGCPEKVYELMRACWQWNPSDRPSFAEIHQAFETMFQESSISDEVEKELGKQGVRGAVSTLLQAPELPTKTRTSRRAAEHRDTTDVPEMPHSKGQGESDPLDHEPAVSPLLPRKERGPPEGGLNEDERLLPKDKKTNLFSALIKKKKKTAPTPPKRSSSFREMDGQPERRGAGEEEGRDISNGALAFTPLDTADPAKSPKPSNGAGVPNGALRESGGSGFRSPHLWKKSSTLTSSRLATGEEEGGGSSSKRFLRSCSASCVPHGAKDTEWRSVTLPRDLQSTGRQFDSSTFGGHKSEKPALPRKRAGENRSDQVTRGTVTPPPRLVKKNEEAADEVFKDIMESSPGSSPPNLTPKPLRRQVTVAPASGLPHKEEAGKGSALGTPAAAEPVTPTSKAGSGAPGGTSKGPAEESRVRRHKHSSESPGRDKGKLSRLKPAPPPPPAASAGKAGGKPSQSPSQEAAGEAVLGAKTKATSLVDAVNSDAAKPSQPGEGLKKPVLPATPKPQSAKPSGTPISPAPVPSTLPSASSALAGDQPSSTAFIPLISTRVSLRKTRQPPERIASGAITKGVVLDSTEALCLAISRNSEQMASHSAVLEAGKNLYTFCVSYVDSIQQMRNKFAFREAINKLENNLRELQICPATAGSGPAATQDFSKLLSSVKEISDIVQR
Source text: (§1) The wash solution is then discarded.

kinases of Table 5 [2] = biological target: kinases of Table 5 (Homo sapiens, UniProt Q9Y6R4); conditions: kinase MAP3K4 (Part I, plate E7, Domain 1); inhibitor 100 uM
Chain of kinases of Table 5 (Homo sapiens, UniProt Q9Y6R4) (Q9Y6R4 whole entry): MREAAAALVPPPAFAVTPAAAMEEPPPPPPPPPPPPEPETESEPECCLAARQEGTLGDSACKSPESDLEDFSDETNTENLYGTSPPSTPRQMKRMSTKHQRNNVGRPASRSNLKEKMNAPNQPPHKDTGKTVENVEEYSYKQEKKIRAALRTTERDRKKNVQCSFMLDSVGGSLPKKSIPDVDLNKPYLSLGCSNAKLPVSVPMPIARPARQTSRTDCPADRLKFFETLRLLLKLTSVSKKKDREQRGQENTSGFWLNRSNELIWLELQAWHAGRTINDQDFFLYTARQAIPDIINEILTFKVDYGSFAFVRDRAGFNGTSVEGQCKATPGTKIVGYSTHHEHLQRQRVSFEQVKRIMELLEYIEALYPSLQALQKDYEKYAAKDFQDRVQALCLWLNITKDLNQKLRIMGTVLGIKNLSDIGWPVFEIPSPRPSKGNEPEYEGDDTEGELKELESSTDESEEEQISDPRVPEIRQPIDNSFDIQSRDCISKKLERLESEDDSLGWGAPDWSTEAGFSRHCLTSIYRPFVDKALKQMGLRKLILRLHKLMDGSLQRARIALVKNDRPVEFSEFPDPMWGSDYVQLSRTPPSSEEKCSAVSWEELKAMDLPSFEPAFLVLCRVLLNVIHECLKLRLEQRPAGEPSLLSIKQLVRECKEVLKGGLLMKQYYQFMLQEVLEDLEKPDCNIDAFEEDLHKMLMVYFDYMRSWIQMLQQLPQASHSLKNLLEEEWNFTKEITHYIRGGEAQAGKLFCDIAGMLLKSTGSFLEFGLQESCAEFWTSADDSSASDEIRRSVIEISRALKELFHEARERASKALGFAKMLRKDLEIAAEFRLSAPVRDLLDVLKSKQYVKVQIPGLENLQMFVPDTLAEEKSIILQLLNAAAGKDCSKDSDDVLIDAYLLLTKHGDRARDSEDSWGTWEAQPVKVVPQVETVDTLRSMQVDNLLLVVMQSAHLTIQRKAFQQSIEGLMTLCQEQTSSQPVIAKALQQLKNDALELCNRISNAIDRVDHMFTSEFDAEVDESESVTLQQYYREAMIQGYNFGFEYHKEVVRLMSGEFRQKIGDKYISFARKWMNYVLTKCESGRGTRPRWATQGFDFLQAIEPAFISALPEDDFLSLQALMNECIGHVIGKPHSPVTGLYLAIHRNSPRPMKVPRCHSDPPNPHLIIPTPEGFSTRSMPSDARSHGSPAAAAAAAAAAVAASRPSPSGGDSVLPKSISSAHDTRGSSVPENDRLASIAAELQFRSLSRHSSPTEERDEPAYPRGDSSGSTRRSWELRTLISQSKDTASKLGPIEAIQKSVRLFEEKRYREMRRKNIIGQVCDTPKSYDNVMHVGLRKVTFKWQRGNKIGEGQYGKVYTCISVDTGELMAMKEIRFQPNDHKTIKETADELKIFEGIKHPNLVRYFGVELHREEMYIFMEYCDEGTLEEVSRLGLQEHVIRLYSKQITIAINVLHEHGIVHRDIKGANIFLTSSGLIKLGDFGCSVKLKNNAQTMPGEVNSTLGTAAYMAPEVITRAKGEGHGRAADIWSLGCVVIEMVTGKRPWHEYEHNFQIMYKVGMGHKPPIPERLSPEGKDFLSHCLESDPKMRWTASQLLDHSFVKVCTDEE
Source text: as §1

kinases of Table 5 [3] = biological target: kinases of Table 5 (Homo sapiens, UniProt Q7KZI7); conditions: kinase MARK2 (Part I, plate C4, Domain 1); inhibitor 100 uM
Chain of kinases of Table 5 (Homo sapiens, UniProt Q7KZI7) (Q7KZI7 whole entry): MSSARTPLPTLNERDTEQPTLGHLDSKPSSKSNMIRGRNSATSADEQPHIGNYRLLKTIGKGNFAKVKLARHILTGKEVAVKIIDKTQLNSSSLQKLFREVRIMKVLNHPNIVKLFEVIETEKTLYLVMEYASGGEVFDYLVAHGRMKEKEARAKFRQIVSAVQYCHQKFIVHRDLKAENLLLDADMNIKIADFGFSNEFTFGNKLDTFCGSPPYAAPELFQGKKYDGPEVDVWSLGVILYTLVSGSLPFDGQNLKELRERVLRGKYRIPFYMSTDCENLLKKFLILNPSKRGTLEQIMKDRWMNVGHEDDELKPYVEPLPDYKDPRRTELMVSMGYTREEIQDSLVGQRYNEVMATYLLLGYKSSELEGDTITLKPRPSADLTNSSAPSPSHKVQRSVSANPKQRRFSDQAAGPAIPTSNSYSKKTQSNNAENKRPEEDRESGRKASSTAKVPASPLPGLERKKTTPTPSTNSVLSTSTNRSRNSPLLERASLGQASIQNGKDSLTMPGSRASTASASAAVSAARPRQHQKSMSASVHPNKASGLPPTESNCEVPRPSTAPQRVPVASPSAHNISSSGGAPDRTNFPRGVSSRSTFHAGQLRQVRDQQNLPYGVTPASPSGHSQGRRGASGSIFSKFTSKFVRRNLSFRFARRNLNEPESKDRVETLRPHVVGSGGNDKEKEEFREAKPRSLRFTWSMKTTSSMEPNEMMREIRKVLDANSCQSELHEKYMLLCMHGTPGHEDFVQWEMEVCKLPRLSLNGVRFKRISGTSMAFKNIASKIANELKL
Source text: as §1

kinases of Table 5 [4] = biological target: kinases of Table 5 (Homo sapiens, UniProt P16591); conditions: inhibitor 100 uM; for Inhibition level: kinase FER; for Inhibition Results (Level): kinase FER (Part II, plate H5, Domain 1)
Source text: as §1

kinases of Table 5 [5] = biological target: kinases of Table 5 (Homo sapiens, UniProt Q14289); conditions: kinase PTK2B (Part I, plate G5, Domain 1)
Chain of kinases of Table 5 (Homo sapiens, UniProt Q14289) (Q14289 whole entry): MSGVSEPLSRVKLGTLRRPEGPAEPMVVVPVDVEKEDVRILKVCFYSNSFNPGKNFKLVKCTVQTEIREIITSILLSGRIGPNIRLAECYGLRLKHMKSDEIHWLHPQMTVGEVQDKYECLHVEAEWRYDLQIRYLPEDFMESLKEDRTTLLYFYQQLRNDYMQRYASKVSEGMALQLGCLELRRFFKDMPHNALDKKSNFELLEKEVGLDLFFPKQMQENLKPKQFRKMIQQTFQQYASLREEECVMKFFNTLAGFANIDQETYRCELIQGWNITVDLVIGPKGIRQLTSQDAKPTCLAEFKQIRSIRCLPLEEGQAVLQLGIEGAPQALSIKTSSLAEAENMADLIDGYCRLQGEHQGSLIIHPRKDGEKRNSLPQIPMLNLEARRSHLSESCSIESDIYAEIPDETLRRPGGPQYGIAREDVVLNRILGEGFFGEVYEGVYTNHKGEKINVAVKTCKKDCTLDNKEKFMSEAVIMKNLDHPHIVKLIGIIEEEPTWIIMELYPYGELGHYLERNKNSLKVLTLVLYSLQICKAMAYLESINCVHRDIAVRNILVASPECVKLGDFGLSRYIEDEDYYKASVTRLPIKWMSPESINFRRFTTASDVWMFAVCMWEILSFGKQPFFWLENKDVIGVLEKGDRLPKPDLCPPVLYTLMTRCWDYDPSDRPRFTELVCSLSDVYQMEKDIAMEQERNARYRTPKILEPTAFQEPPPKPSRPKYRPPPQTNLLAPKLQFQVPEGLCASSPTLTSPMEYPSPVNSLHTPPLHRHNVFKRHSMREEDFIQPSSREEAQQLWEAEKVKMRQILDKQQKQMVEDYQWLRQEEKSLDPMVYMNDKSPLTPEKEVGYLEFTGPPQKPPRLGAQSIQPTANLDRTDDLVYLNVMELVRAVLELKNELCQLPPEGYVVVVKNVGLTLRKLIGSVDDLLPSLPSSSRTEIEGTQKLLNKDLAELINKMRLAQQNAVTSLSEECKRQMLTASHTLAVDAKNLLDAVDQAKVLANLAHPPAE
Source text: as §1

kinases of Table 5 [6] = biological target: kinases of Table 5 (Homo sapiens, UniProt P24723); conditions: for Inhibition level: kinase PRKCH; for Inhibition Results (Level): kinase PRKCH (Part II, plate B3, Domain 0)
Source text: as §1

kinases of Table 5 [7] = biological target: T1, kinases of Table 5 (Homo sapiens, UniProt P54762); conditions: for Inhibition Results (Level): kinase EPHB1 (Part II, plate B8, Domain 1)
T1 sequence (P54762 18-984): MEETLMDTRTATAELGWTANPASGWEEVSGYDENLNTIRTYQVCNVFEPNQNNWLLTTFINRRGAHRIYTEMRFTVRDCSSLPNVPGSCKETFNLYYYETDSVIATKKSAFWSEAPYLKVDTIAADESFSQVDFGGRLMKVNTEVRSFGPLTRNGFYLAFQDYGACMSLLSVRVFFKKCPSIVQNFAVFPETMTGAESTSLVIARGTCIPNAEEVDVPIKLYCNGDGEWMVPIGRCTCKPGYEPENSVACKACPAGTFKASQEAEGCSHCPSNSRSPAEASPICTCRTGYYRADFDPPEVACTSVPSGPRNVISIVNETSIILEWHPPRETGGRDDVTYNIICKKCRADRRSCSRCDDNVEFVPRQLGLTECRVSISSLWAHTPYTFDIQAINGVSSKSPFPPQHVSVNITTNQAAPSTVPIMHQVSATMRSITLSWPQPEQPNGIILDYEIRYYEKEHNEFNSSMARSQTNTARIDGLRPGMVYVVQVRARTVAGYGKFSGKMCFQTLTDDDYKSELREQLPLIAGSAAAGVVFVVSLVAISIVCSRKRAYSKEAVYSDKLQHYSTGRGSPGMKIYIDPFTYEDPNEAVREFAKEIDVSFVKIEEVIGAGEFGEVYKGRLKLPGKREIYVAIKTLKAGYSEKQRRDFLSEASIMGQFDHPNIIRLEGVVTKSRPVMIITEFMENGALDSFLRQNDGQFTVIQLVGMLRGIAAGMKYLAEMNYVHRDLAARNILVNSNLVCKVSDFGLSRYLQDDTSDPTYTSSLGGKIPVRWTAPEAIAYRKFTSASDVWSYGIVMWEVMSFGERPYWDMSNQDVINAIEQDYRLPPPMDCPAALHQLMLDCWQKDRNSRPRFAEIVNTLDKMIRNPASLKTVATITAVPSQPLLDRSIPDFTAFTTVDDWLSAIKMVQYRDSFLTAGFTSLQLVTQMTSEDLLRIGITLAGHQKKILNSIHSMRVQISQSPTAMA
Source text: as §1

kinases of Table 5 [8] = biological target: T2, kinases of Table 5 (Homo sapiens, UniProt P51813); conditions: inhibitor 100 uM; for Inhibition level: kinase BMX; for Inhibition Results (Level): kinase BMX (Part II, plate B12, Domain 1)
T2 sequence (P51813 1-675): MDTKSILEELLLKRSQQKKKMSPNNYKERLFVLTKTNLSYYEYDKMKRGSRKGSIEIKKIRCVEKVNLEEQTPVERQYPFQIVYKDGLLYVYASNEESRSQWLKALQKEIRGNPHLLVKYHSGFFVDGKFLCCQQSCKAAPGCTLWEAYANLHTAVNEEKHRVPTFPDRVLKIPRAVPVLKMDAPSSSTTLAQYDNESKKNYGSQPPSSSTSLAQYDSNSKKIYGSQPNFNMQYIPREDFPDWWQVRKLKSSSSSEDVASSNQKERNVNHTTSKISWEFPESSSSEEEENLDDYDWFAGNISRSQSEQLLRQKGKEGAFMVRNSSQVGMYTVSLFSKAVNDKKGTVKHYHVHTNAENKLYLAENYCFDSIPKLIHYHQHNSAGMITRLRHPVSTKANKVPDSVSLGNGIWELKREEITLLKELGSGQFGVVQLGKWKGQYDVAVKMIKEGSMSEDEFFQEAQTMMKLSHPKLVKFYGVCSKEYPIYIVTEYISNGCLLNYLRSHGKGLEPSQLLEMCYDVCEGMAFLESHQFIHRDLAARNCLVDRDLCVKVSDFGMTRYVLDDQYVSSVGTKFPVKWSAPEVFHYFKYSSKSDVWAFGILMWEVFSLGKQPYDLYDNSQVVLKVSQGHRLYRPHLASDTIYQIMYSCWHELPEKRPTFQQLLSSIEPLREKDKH
Source text: as §1

kinases of Table 5 [9] = biological target: kinases of Table 5 (Homo sapiens, UniProt Q86UE8); conditions: kinase TLK2 (Part I, plate C8, Domain 1)
Source text: as §1

[10] = kinase EPHB1, concentration not given

| Compound | Inhibition level (kinases of Table 5 [1]; inhibitor 100 uM) | Inhibition Results (Level) (kinases of Table 5 [2]) | Inhibition Results (Level) (kinases of Table 5 [3]) | Inhibition level (kinases of Table 5 [4]) | Inhibition Results (Level) (kinases of Table 5 [5]; inhibitor 100 uM) | Inhibition level (kinases of Table 5 [6]; inhibitor 100 uM) | Inhibition level (kinases of Table 5 [7]; kinase EPHB1, inhibitor 100 uM) | Inhibition level (kinases of Table 5 [8]) | Inhibition Results (Level) (kinases of Table 5 [9]; inhibitor 100 uM) | Inhibition Results (Level) (kinases of Table 5 [4]) | Inhibition Results (Level) (kinases of Table 5 [6]; inhibitor 100 uM) | Inhibition Results (Level) (kinases of Table 5 [7]; inhibitor 100 uM) | Inhibition Results (Level) (kinases of Table 5 [8]) | further results |
| --- | --- | --- | --- | --- | --- | --- | --- | --- | --- | --- | --- | --- | --- | --- |
| O=c1c(-c2ccc(O)cc2)coc2cc(O)cc(O)c12 [Genistein] | 0 | 1 | 2 | 2 | 2 | 2 | 1 | 0 | 2 |  |  |  |  | Inhibition level (kinases of Table 5 [1]; concentration not given): 0; Inhibition level (kinases of Table 5 [6]; concentration not given): 0; Inhibition level (kinases of Table 5 [7]; [10]): 0; Inhibition Results (Level) (kinases of Table 5 [9]; inhibitor <3.7 mM): 0 |
| N#C/C(=C/c1ccc(O)c(O)c1)C(=O)NCc1ccccc1 [AG 490] | 0 | 2 | 2 | 2 | 2 | 2 | 0 | 0 | 2 |  |  |  |  |  |
| COc1cc2ncnc(Nc3cccc(Cl)c3)c2cc1OC [AG 1478] | 1 | 1 | 2 | 1 | 2 | 0 | 2 | 1 | 2 |  |  |  |  |  |
| CC(=O)c1c(O)c(C)c(O)c(Cc2c(O)c3c(c(C(=O)/C=C/c4ccccc4)c2O)OC(C)(C)C=C3)c1O [Rottlerin (Mallotoxin)] |  | 1 | 2 |  | 2 |  |  |  | 2 | 2 | 2 | 1 | 1 | Inhibition Results (Level) (kinases of Table 5 [1]; inhibitor 100 uM): 0 |
| CN[C@@H]1C[C@H]2O[C@@](C)([C@@H]1OC)n1c3ccccc3c3c4c(c5c6ccccc6n2c5c31)C(=O)NC4 [Staurosporine] |  |  |  |  |  |  |  |  |  |  |  |  |  | Inhibition Results (Level) (kinases of Table 5 [5]; inhibitor 21.5 uM): 0; Inhibition level (kinases of Table 5 [7]): 2; Inhibition Results (Level) (kinases of Table 5 [9]; inhibitor 21.5 uM): 2 |
| O=S(=O)(NCCNC/C=C/c1ccc(Br)cc1)c1cccc2cnccc12 [H-89] |  | 1 | 2 |  | 1 |  |  |  | 2 | 2 | 2 | 1 | 1 | Inhibition Results (Level) (kinases of Table 5 [1]; inhibitor 100 uM): 0 |
| CC(C)(C)n1nc(-c2ccc(Cl)cc2)c2c(N)ncnc21 [PP2] |  | 2 | 2 | 2 | 2 | 2 | 2 | 2 | 2 |  |  |  |  |  |
| O=c1c(O)c(-c2ccc(O)c(O)c2)oc2cc(O)cc(O)c12 [Quercetin] |  | 0 |  |  | 1 |  |  |  | 0 | 1 | 0 | 0 | 0 |  |
| Cn1cc(C2=C(c3cn(CCCSC(=N)N)c4ccccc34)C(=O)NC2=O)c2ccccc21 [Ro-31-8220] | 2 | 2 | 2 | 2 | 2 | 2 | 0 | 2 | 1 |  |  |  |  | Inhibition level (kinases of Table 5 [1]; concentration not given): 0; Inhibition Results (Level) (kinases of Table 5 [5]; inhibitor 90 uM): 0; Inhibition level (kinases of Table 5 [6]; concentration not given): 2; Inhibition level (kinases of Table 5 [7]; [10]): 2; Inhibition Results (Level) (kinases of Table 5 [9]; inhibitor 90 uM): 2 |
